Reference: the supplement of paper PMC10331698
± gives the standard deviation of the averaged measurements.

Tests used:
Test in all cases: level (log10 ratio to DMSO vehicle control); higher = higher biomarker level / cell amount than vehicle control
[1] = compound: C=C(C)C(=O)OCCC(F)(F)C(F)(F)C(F)(F)C(F)(F)C(F)(F)C(F)(F)F [6:2 Fluorotelomer methacrylate]; conditions: in DMSO
Method: (§1)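 BioMAP Diversity Plus panel of 12 human primary cell co-culture systems (3C, 4H, LPS, SAg, BT, BF4T, BE3C, CASM3C, HDF3CGF, KF3CT, MyoF, Mphg). Compounds were added 1 h before stimulation and left for 24 h (MyoF 48 h; BT 72 h for soluble read-outs or 6 d for IgG). Biomarkers were read by ELISA, cytotoxicity by SRB, PBMC viability and proliferation by Alamar Blue. Each well value was divided by the mean of 8 DMSO control wells on the same plate and log10 transformed; duplicate blinded samples were tested at 4 concentrations.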

[2] = compound: C=CC(=O)OCC(F)(F)C(F)(F)C(F)(F)COC(=O)C=C [1H,1H,5H,5H-Perfluoro-1,5-pentanediol diacrylate]; conditions: 6700 nM; in DMSO
Method: as §1

[3] = compound: COC(=O)C(F)(F)C(F)(F)OC(F)(C(F)(F)F)C(F)(F)OC(F)=C(F)F [Methyl perfluoro(3-(1-ethenyloxypropan-2-yloxy)propanoate)]; conditions: in DMSO
Method: as §1

[4] = compound: FC(F)(F)C(F)(F)C(F)(F)C(F)(F)C(F)(F)C(F)(F)C(F)(F)I [1-Iodopentadecafluoroheptane]; conditions: in DMSO
Method: as §1

[5] = compound: FC(F)(F)C(F)(F)C(F)(F)C(F)(F)C(F)(F)C(F)(F)CC1CO1 [3-(Perfluorohexyl)-1,2-epoxypropane]; conditions: in DMSO
Method: as §1

[6] = compound: FC(F)(F)C(F)(F)C(F)(F)CC1CO1 [1H,1H-Heptafluorobutyl epoxide]; conditions: in DMSO
Method: as §1

Heptafluorobutyl iodide = compound: FC(F)(F)C(F)(F)C(F)(F)CI [Heptafluorobutyl iodide]; conditions: in DMSO
Method: as §1

[7] = compound: FC(F)(F)C(F)(F)CNCC(F)(F)C(F)(F)F [Bis(1H,1H-perfluoropropyl)amine]; conditions: in DMSO
Method: as §1

Octafluoroadipamide = compound: NC(=O)C(F)(F)C(F)(F)C(F)(F)C(F)(F)C(N)=O [Octafluoroadipamide]; conditions: in DMSO
Method: as §1

Nonafluoropentanamide = compound: NC(=O)C(F)(F)C(F)(F)C(F)(F)C(F)(F)F [Nonafluoropentanamide]; conditions: in DMSO
Method: as §1

[8] = compound: NC(=O)C(F)(F)C(F)(F)C(F)(F)C(F)F; conditions: in DMSO
Method: as §1

[9] = compound: NS(=O)(=O)C(F)(F)C(F)(F)C(F)(F)C(F)(F)C(F)(F)C(F)(F)F [Perfluorohexanesulfonamide]; conditions: in DMSO
Method: as §1

[10] = compound: O=C(O)C(F)(F)C(F)(F)C(F)(F)C(F)(F)C(F)(F)C(F)(F)C(F)(F)C(F)(F)C(F)(F)C(F)F [11-H-Perfluoroundecanoic acid]; conditions: in DMSO
Method: as §1

[11] = compound: O=C(O)C=CC(F)(C(F)(F)F)C(F)(F)F [3-(Perfluoroisopropyl)-2-propenoic acid]; conditions: in DMSO
Method: as §1

[12] = compound: O=S(=O)(Cl)C(F)(F)C(F)(F)C(F)(F)C(F)(F)C(F)(F)C(F)(F)C(F)(F)C(F)(F)F [Perfluoro-1-octanesulfonyl chloride]; conditions: in DMSO
Method: as §1

[13] = compound: O=S(=O)(F)C(F)(F)C(F)(F)C(F)(F)C(F)(F)C(F)(F)C(F)(F)C(F)(F)C(F)(F)F [Perfluorooctanesulfonyl fluoride]; conditions: in DMSO
Method: as §1

[14] = compound: O=S(=O)(O)C(F)(F)C(F)(F)C(F)(F)C(F)(F)C(F)(F)C(F)(F)C(F)(F)C(F)(F)C(F)(F)C(F)(F)F [Sodium perfluorodecanesulfonate]; conditions: in DMSO
Method: as §1

[15] = compound: O=S(=O)(O)CCC(F)(F)C(F)(F)C(F)(F)C(F)(F)C(F)(F)C(F)(F)F [6:2 Fluorotelomer sulfonic acid]; conditions: in DMSO
Method: as §1

Hexafluoroamylene glycol = compound: OCC(F)(F)C(F)(F)C(F)(F)CO [Hexafluoroamylene glycol]; conditions: in DMSO
Method: as §1

Test System: SAg:CXCL8/IL-8
- level (log10) ([1]; 6700 nM): 0.0095 ± 0.005
- level (log10) ([1]; 20000 nM): -0.0165 ± 0.0021
- level (log10) ([1]; 60000 nM): 0.044 ± 0.011
- level (log10) [2]: -0.259 ± 0.13
- level (log10) ([3]; 6700 nM): -0.0155 ± 0.026
- level (log10) ([3]; 20000 nM): 0.055 ± 0.15
- level (log10) ([4]; 6700 nM): -0.034 ± 0.035
- level (log10) ([4]; 20000 nM): 0.0055 ± 0.073
- level (log10) ([5]; 6700 nM): -0.0135 ± 0.021
- level (log10) ([5]; 20000 nM): -0.029 ± 0.013
- level (log10) ([5]; 60000 nM): 0.0075 ± 0.026
- level (log10) ([6]; 6700 nM): -0.012 ± 0.05
- level (log10) ([6]; 20000 nM): -0.011 ± 0.021
- level (log10) ([6]; 60000 nM): 0.005 ± 0.027
- level (log10) (Heptafluorobutyl iodide; 6700 nM): -0.053 ± 0.04
- level (log10) (Heptafluorobutyl iodide; 20000 nM): -0.0345 ± 0.019
- level (log10) (Heptafluorobutyl iodide; 60000 nM): -0.02 ± 0.072
- level (log10) ([7]; 6700 nM): 0.0265 ± 0.059
- level (log10) ([7]; 20000 nM): -0.0085 ± 0.023
- level (log10) ([7]; 60000 nM): 0.0095 ± 0.053
- level (log10) (Octafluoroadipamide; 6700 nM): -0.001 ± 0.04
- level (log10) (Octafluoroadipamide; 20000 nM): 0.0075 ± 0.015
- level (log10) (Octafluoroadipamide; 60000 nM): 0.02 ± 0.0014
- level (log10) (Nonafluoropentanamide; 6700 nM): -0.0285 ± 0.039
- level (log10) (Nonafluoropentanamide; 20000 nM): -0.027 ± 0.02
- level (log10) (Nonafluoropentanamide; 60000 nM): -0.0305 ± 0.076
- level (log10) ([8]; 6700 nM): -0.0055 ± 0.037
- level (log10) ([8]; 20000 nM): 0.0075 ± 0.015
- level (log10) ([8]; 60000 nM): 0.0055 ± 0.018
- level (log10) ([9]; 6700 nM): -0.0225 ± 0.021
- level (log10) ([9]; 20000 nM): -0.088 ± 0.0099
- level (log10) ([9]; 60000 nM): -0.237 ± 0.088
- level (log10) ([10]; 6700 nM): -0.0115 ± 0.019
- level (log10) ([10]; 20000 nM): -0.0115 ± 0.05
- level (log10) ([11]; 6700 nM): -0.0185 ± 0.005
- level (log10) ([11]; 20000 nM): -0.0015 ± 0.033
- level (log10) ([11]; 60000 nM): 0.009 ± 0.028
- level (log10) ([12]; 6700 nM): -0.011 ± 0.011
- level (log10) ([12]; 20000 nM): 0.012 ± 0.0099
- level (log10) ([12]; 60000 nM): 0.093 ± 0.016
- level (log10) ([13]; 6700 nM): 0.039 ± 0.1
- level (log10) ([13]; 20000 nM): -0.012 ± 0.025
- level (log10) ([13]; 60000 nM): 0.012 ± 0.058
- level (log10) ([14]; 1500 nM): 0.0165 ± 0.025
- level (log10) ([14]; 4400 nM): -0.0175 ± 0.016
- level (log10) ([14]; 13000 nM): 0.06 ± 0.0042
- level (log10) ([14]; 40000 nM): 0.126 ± 0.019
- level (log10) ([15]; 6700 nM): -0.012 ± 0.025
- level (log10) ([15]; 20000 nM): 0.0325 ± 0.039
- level (log10) ([15]; 60000 nM): 0.064 ± 0.03
- level (log10) (Hexafluoroamylene glycol; 6700 nM): -0.0285 ± 0.073
- level (log10) (Hexafluoroamylene glycol; 20000 nM): -0.0175 ± 0.0092
- level (log10) (Hexafluoroamylene glycol; 60000 nM): 0.052 ± 0.035

Test System: 3C:CD87/uPAR
- level (log10) ([1]; 6700 nM): 0.003 ± 0.035
- level (log10) ([1]; 20000 nM): 0.004 ± 0.034
- level (log10) ([1]; 60000 nM): 0.0195 ± 0.039
- level (log10) [2]: 0.014 ± 0.034
- level (log10) ([3]; 6700 nM): 0.01 ± 0.041
- level (log10) ([3]; 20000 nM): 0.031 ± 0.013
- level (log10) ([4]; 6700 nM): -0.0165 ± 0.018
- level (log10) ([4]; 20000 nM): -0.0175 ± 0.0078
- level (log10) ([5]; 6700 nM): 0.03 ± 0.0085
- level (log10) ([5]; 20000 nM): 0.032 ± 0.0085
- level (log10) ([5]; 60000 nM): 0.052 ± 0.017
- level (log10) ([6]; 6700 nM): -0.0185 ± 0.026
- level (log10) ([6]; 20000 nM): 0 ± 0.021
- level (log10) ([6]; 60000 nM): -0.01 ± 0.0071
- level (log10) (Heptafluorobutyl iodide; 6700 nM): -0.0375 ± 0.0092
- level (log10) (Heptafluorobutyl iodide; 20000 nM): -0.05 ± 0.051
- level (log10) (Heptafluorobutyl iodide; 60000 nM): -0.032 ± 0.041
- level (log10) ([7]; 6700 nM): 0.021 ± 0.0028
- level (log10) ([7]; 20000 nM): 0.0045 ± 0.015
- level (log10) ([7]; 60000 nM): -0.0075 ± 0.0064
- level (log10) (Octafluoroadipamide; 6700 nM): 0.012 ± 0.011
- level (log10) (Octafluoroadipamide; 20000 nM): -0.0005 ± 0.011
- level (log10) (Octafluoroadipamide; 60000 nM): -0.0145 ± 0.0092
- level (log10) (Nonafluoropentanamide; 6700 nM): -0.037 ± 0.0085
- level (log10) (Nonafluoropentanamide; 20000 nM): -0.018 ± 0.016
- level (log10) (Nonafluoropentanamide; 60000 nM): -0.0095 ± 0.022
- level (log10) ([8]; 6700 nM): -0.0235 ± 0.036
- level (log10) ([8]; 20000 nM): -0.022 ± 0.03
- level (log10) ([8]; 60000 nM): -0.023 ± 0.027
- level (log10) ([9]; 6700 nM): -0.0335 ± 0.0035
- level (log10) ([9]; 20000 nM): -0.0565 ± 0.036
- level (log10) ([9]; 60000 nM): -0.137 ± 0.035
- level (log10) ([10]; 6700 nM): -0.0065 ± 0.018
- level (log10) ([10]; 20000 nM): 0.0045 ± 0.023
- level (log10) ([11]; 6700 nM): 0.025 ± 0.0071
- level (log10) ([11]; 20000 nM): 0.033 ± 0.038
- level (log10) ([11]; 60000 nM): 0.0465 ± 0.042
- level (log10) ([12]; 6700 nM): 0.011 ± 0.024
- level (log10) ([12]; 20000 nM): -0.0065 ± 0.016
- level (log10) ([12]; 60000 nM): -0.199 ± 0.033
- level (log10) ([13]; 6700 nM): -0.0125 ± 0.012
- level (log10) ([13]; 20000 nM): -0.0085 ± 0.012
- level (log10) ([13]; 60000 nM): -0.006 ± 0.0014
- level (log10) ([14]; 1500 nM): -0.0055 ± 0.047
- level (log10) ([14]; 4400 nM): -0.0275 ± 0.013
- level (log10) ([14]; 13000 nM): -0.009 ± 0.037
- level (log10) ([14]; 40000 nM): -0.222 ± 0.0085
- level (log10) ([15]; 6700 nM): -0.0235 ± 0.07
- level (log10) ([15]; 20000 nM): -0.0245 ± 0.023
- level (log10) ([15]; 60000 nM): -0.0015 ± 0.015
- level (log10) (Hexafluoroamylene glycol; 6700 nM): -0.0295 ± 0.047
- level (log10) (Hexafluoroamylene glycol; 20000 nM): -0.0235 ± 0.039
- level (log10) (Hexafluoroamylene glycol; 60000 nM): -0.0075 ± 0.029
